The values below come from ChEMBL document CHEMBL3046300, “Design, synthesis, and biological evaluation of sulfonic acid ester and benzenesulfonamide derivatives as potential CETP inhibitors” (Med Chem Res, 2012).

By inhibition is commonly meant the change of the read-out against control, counted positive when it falls. A low value points to a weak effect. As a reminder, the IC50 is the concentration that inhibits the measured activity by half. Low values mean greater potency, high ones weaker potency.

In assay [1] the target is T1, Cholesteryl ester transfer protein (Oryctolagus cuniculus) (UniProt P22687).
T1 sequence (whole entry): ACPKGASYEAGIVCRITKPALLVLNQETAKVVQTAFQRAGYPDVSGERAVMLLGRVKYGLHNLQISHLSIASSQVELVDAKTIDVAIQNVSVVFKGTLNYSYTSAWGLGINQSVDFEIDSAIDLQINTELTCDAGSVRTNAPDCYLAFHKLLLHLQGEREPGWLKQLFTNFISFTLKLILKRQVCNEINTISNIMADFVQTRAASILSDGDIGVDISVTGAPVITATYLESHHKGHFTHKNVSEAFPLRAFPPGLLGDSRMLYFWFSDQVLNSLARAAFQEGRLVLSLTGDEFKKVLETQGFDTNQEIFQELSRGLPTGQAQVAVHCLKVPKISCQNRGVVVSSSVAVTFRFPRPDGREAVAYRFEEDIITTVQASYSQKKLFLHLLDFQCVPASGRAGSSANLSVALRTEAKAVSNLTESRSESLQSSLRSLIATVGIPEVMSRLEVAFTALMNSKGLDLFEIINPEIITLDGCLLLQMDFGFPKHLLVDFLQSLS
The experiment in a line: Inhibition of Oryctolagus cuniculus (rabbit) CETP-mediated cholesteryl ester transfer at 10 uM after 1 hr by fluorescence assay.

In assay [2] the target is T2, Cholesteryl ester transfer protein (Oryctolagus cuniculus, UniProt P22687).
T2 sequence (P22687 whole entry): T1 sequence (whole entry)
The experiment in a line: Inhibition of Oryctolagus cuniculus (rabbit) CETP-mediated cholesteryl ester transfer after 1 hr by fluorescence assay.

Compound `Cc1ccc(S(=O)(=O)Nc2ccc(OCc3ccc(C(F)(F)F)cc3)cc2)cc1` came in with an inhibition in assay [1] of 9.9%. On the same count and under the same terms, the value for `Cc1ccc(S(=O)(=O)Oc2ccc(NCc3cccc([N+](=O)[O-])c3)cc2)cc1` was 29.9%. On the same count and under the same terms, the value for `Cc1ccc(S(=O)(=O)Oc2ccc(N(Cc3ccc([N+](=O)[O-])cc3)Cc3ccc([N+](=O)[O-])cc3)cc2)cc1` was 9.3%. As to `Cc1ccc(S(=O)(=O)Oc2ccc(N(Cc3cccc(Br)c3)Cc3cccc(Br)c3)cc2)cc1`, the inhibition in assay [1] turned out to be 23.1%.

In assay [1], `Cc1ccc(COc2ccc(NS(=O)(=O)c3ccc(C)cc3)cc2)cc1` displayed an inhibition of 0%.

Turning to `Cc1ccc(S(=O)(=O)Oc2ccc(NCc3cccc(C)c3)cc2)cc1`, in assay [2], the IC50 was 30.1 µM. In assay [1], this compound gave an inhibition of 31.3%. For `Cc1ccc(S(=O)(=O)Oc2ccc(N(Cc3cccc([N+](=O)[O-])c3)Cc3cccc([N+](=O)[O-])c3)cc2)cc1`, in that order: 29.7 µM and 31.4%. The corresponding values for `COc1cccc(COc2ccc(N(S(=O)(=O)c3ccc(C)cc3)S(=O)(=O)c3ccc(C)cc3)cc2)c1` are 3.9 µM and 65.3%. In assay [1], `Cc1ccc(S(=O)(=O)Nc2ccc(OCc3ccc(Br)cc3)cc2)cc1` displayed an inhibition of 10.2%. Take `Cc1ccc(S(=O)(=O)N(c2ccc(OCc3cccc(C(F)(F)F)c3)cc2)S(=O)(=O)c2ccc(C)cc2)cc1`: the IC50 in assay [2] came to 11.1 µM. The same compound had an inhibition in assay [1] of 39%. On to `Cc1ccc(S(=O)(=O)Oc2ccc(N(Cc3cccc(Cl)c3)Cc3cccc(Cl)c3)cc2)cc1`, for which the concentration for half-maximal inhibition (IC50) in assay [2] amounted to 28.5 µM. In assay [1], this compound displayed an inhibition of 31.9%.

In assay [1], `Cc1ccc(S(=O)(=O)Oc2ccc(N(Cc3cccc(C(F)(F)F)c3)Cc3cccc(C(F)(F)F)c3)cc2)cc1` gave an inhibition of 24.7%. The same measure, in the same setting: the value for `Cc1ccc(S(=O)(=O)Oc2ccc(N(Cc3ccc(Br)cc3)Cc3ccc(Br)cc3)cc2)cc1` was 17.5%. The compound `Cc1ccc(S(=O)(=O)N(c2ccc(OCc3ccc(Cl)cc3)cc2)S(=O)(=O)c2ccc(C)cc2)cc1` had an IC50 in assay [2] of 13.2 µM. The compound also returned an inhibition in assay [1] of 37.5%. For the compound `Cc1ccc(S(=O)(=O)Oc2ccc(NCc3cccc(Br)c3)cc2)cc1`, the inhibition in assay [1] stood at 16.1%. Still for that read-out and setting: the value for `COc1cccc(COc2ccc(NS(=O)(=O)c3ccc(C)cc3)cc2)c1` was 22.8%. The same measure, in the same setting: the value for `Cc1ccc(CN(Cc2ccc(C)cc2)c2ccc(OS(=O)(=O)c3ccc(C)cc3)cc2)cc1` was 22.3%; that for `Cc1ccc(S(=O)(=O)Oc2ccc(N(Cc3ccc(Cl)cc3)Cc3ccc(Cl)cc3)cc2)cc1` was 24.9%. Same read-out and setting: the value for `Cc1ccc(S(=O)(=O)Nc2ccc(OCc3ccc([N+](=O)[O-])cc3)cc2)cc1` was 15.5%. For the compound `Cc1ccc(S(=O)(=O)Nc2ccc(OCc3ccc(Cl)cc3)cc2)cc1`, the inhibition in assay [1] was found to be 23%.

`Cc1ccc(S(=O)(=O)N(c2ccc(OCc3cccc(Cl)c3)cc2)S(=O)(=O)c2ccc(C)cc2)cc1` registered an IC50 in assay [2] of 10.5 µM. For the same compound, the inhibition in assay [1] was 42.6%. For the compound `Cc1ccc(S(=O)(=O)Nc2ccc(OCc3cccc(Cl)c3)cc2)cc1`, in assay [1], the inhibition is 29.6%. Compound `Cc1ccc(S(=O)(=O)N(c2ccc(OCc3cccc(C)c3)cc2)S(=O)(=O)c2ccc(C)cc2)cc1` showed an IC50 in assay [2] of 3.4 µM. In assay [1], this compound registered an inhibition of 66.9%. Compound `Cc1ccc(S(=O)(=O)Oc2ccc(N(Cc3cccc(C)c3)Cc3cccc(C)c3)cc2)cc1` yielded an inhibition in assay [1] of 29%.
